{
  "source": "patent US20250327034A1",
  "about": "“CELL CULTURE MEDIUM” (Ajinomoto Co., Inc., priority 2022, published 2025)",
  "test_system": "CHO cell",
  "assay": "CHO cell fed-batch culture (ambr15) with high L-cysteine feed: antibody yield (Example 6)",
  "format": "cell-based, Chinese hamster",
  "details": "CHO cells, 11 mM, 18 mM and 23-24 mM equivalent L-cysteine feed sections",
  "procedure": "Basal media were prepared by adding a final concentration of 4 mM L-Glutamine (Thermo Fisher Scientific: 25030081) to media that were designed on the basis of CELLIST™ Basal media (AJINOMOTO CO., INC.: BASAL10).\nFeed Media A were prepared on the basis of the commercially available CELLIST™ Feed media (AJINOMOTO CO., INC.: FEED 2). Feed media A containing a final concentration of 11 or 18 mM L-cysteine and 60 g/L glucose were prepared to have a pH of 6.7-6.9 according to the procedures described in the product instructions for FEED 2.\nA 110 mM L-cysteine solution (pH 11.3) was prepared.\nUsing the prepared basal media, CHO suspensions adjusted to 7×10^5 celllls/mL were cultured for 14 days using the ambr15 cell culture system (Sartorius AG). All of the experimental groups were performed with n=2. […] The antibody yields on day 14 in these conditioned sections were measured using Cedex Bio HT (Roche Diagnostics K.K.)",
  "data": [
    {"compound": "N[C@@H](CS)C(=O)O", "note": "[L-cysteine]", "values": [
      {"measurement": "Antibody yield on day 14", "value": "improves the antibody yield"}
    ]}
  ]
}
